Measured values from US20160067221A1, “USE OF ERGOTHIONEINE FOR INDUCING ACTIVITY OF NRF2 IN CELL” (China Medical University, priority 2014, published 2016).

Key:
Type in all cases: cell-based, human
Nrf2 = assay: Western blot in Nrf2 knockdown HaCaT cells (siRNA transfection); settings: Nrf2 siRNA transfected cells, 500 nM ergothioneine 24 hours
Excerpt: The Nrf2 is an important transcription factor, the downstream antioxidant enzymes are regulated by the Nrf2 transcription gene. To examine protective effects of the ergothioneine on the HaCaT cells indeed through the Nrf2 activation, we developed an Nrf2 gene knockdown model in the HaCaT cells by a siRNA transfection in this example. Then, the expression of the downstream antioxidant gene is observed to investigate whether the protective properties of the ergothioneine will be affected.
(§1) The siRNA transfection includes steps as follows. The HaCaT cells are seeded in a 6-well plate with 4×10^5 cells/well and then maintained at 37° C. in the humidified atmosphere of 5% CO2 untill the time of the transfection. The day after reaching 40-60% confluence, the culture medium is replaced with 1 mL of FBS-free and antibiotic-free culture medium in each well, and the HaCaT cells are transfected with a siNrf2 or a control siRNA by using Lipofectamine 2000 (Invitrogen, U.S.A.) for 4-6 hours. After the incubation for 4-6 hours, the HaCaT cells are washed with the culture medium supplemented with 10% FBS 2-3 times, and then cultured in the culture medium supplemented with 10% FBS for 12-16 hours.
After the siRNA transfection, the HaCaT cells are treated with 500 nM ergothioneine for 24 hours. After the ergothioneine treatment, the HaCaT cells are subjected to analyses of the protein express on of the Nrf2 in 1 hour post-treatment and the protein expressions of HO-1 γ-GCLC and NQO-1 in 4 hours post-treatment by the Western blot analysis. FIG. 13-(A) illustrates the effect of the ergothioneine on protein expression of the Nrf2 in Nrf2 knockdown HaCaT cells by using the siRNA transfection.

[1] = system: Nrf2 knockdown HaCaT cells; assay: ROS generation in siRNA-transfected HaCaT cells; settings: 500 nM 24 hours
Method: as §1
We further measure the amount of ROS generation in the HaCaT cells treated with the ergothioneine prior to 15 J/cm^2 UVA irradiation. The HaCaT cells are incubated with 500 nM ergothioneine for 24 hours after the siRNA transfection. After the incubation, the HaCaT cells are treated with or without the UVA irradiation (15 J/cm^2) for 4 hours, and then the HaCaT cells are subjected to detect the ROS generation.

HaCaT cells = assay: Comet assay (DNA damage); settings: for Toxicity Scale 0 (comets in class 0) / Toxicity Scale 1 (comets in class 1) / Toxicity Scale 2 (comets in class 2) / Toxicity Scale 3 (comets in class 3) / Toxicity Scale 4 (comets in class 4): per 100 comets
Excerpt: The exposure of the UVA can cause a DNA damage. To examine the effect of the ergothioneine on the UVA-induced DNA damage, we use a comet assay to analyze the DNA damage. The comet assay involves an encapsulation of the cells in a low-melting-point agarose suspension, the cells lysis in alkaline (pH>13) conditions, a short-term electrophoresis of the suspended lysed cells, and a stained DNA of an electrophoretic stripe using the fluorescent dye. The term “comet” refers to a pattern of a DNA migration through the electrophoresis gel, wherein the DNA migration is caused by a DNA cleavage fragment of the damaged cell released from its nucleus, and the DNA cleavage fragment moves faster than the nucleus of a non-damaged cell in an electric field and results in structure resembling the comet. […] Then, the HaCaT cells are performed the comet assay and stained by red fluorescent dye. The pattern of the nucleus of the damaged cell resembles the comet in the comet assay, which is caused by the DNA cleavage fragment of the damaged cell. In contrast, the pattern of the nucleus of the normal cell, which has non-DNA cleavage fragment, is spherical in the comet assay. […] In FIG. 4 and Table 1, the UVA irradiation (15 J/cm^2) for 4 hours triggers the DNA breakage of the nucleus shown as the tail. The overall score of the group treated with the UVA irradiation alone is 356.3±2.1. […] Therefore, the ergothioneine can inhibit the DNA damage and has a protective property.

[2] = system: UVA-irradiated HaCaT cells; assay: Total glutathione (GSH) content, DTNB method; settings: 125-500 nM 24 hours prior to 15 J/cm^2 UVA, 4 hours; dose-dependent
Excerpt: A glutathione (GSH), the antioxidant in animal cells, can protect DNA against external oxidative stresses. Given that the ergothioneine treatment to the HaCaT cells can reduce the DNA damage of the HaCaT cells; this example next investigates the UVA-induced oxidative damage by determining a total GSH content of the HaCaT cells treated with the ergothioneine or the UVA irradiation. A glutathione disulfide (GSSG) is an oxidized form of the GSH, and the GSSG can be reduced to the GSH by a glutathione reductase. Antioxidant enzymes, such as glutathione peroxidases and peroxiredoxins, generate glutathione disulfide during the reduction of peroxides such as hydrogen peroxide (H2O2) and organic hydroperoxides (ROOH). The GSH generates a yellow-colored 5-thio-2-nitrobenzoic acid (TNB) and a […] GSTNB (between GSH and TNB) during the reaction of 5,5′-dithiobis-(2-nitrobenzoic acid) (DTNB), wherein the content of (GSSG+GSH) is the rate determining factor of color production in aforementioned reactions. The rate of the yellow-colored TNB production is directly proportional to the concentration of (GSSG+GSH) in a sample. Thus, measurement of the absorbance of the TNB provides an accurate estimation of the amount of total glutathione (GSSG+GSH) in the sample. […] The net absorbance at 405 nm yields an accurate amount of the total glutathione in the sample.

C[N+](C)(C)[C@@H](Cc1c[nH]c(=S)[nH]1)C(=O)[O-] [ergothioneine, 2-mercapto histidine trimethylbetain]
expression of HO-1 (Nrf2): not shown the increased expression | expression of NQO-1 (Nrf2): not shown the increased expression | expression of γ-GCLC (Nrf2): not shown the increased expression | ROS generation ([1]; Nrf2 siRNA, UVA 15 J/cm^2): unable to decrease the ROS generation | ROS generation ([1]; control siRNA, UVA 15 J/cm^2, vs UVA alone): significantly reduced | Total Damage (overall comet score, 0-400) (HaCaT cells; 250 nM + 15 J/cm^2 UVA): 144 ± 10 | Toxicity Scale 0 (comets in class 0) (HaCaT cells; 250 nM + 15 J/cm^2 UVA): 20 ± 1 | Toxicity Scale 1 (comets in class 1) (HaCaT cells; 250 nM + 15 J/cm^2 UVA): 27 ± 6 | Toxicity Scale 2 (comets in class 2) (HaCaT cells; 250 nM + 15 J/cm^2 UVA): 52 ± 9 | Toxicity Scale 3 (comets in class 3) (HaCaT cells; 250 nM + 15 J/cm^2 UVA): 0 ± 0 | Toxicity Scale 4 (comets in class 4) (HaCaT cells; 250 nM + 15 J/cm^2 UVA): 0 ± 0 | Total Damage (overall comet score, 0-400) (HaCaT cells; 250 nM, no UVA): 14 ± 4 | Toxicity Scale 0 (comets in class 0) (HaCaT cells; 250 nM, no UVA): 88 ± 4 | Toxicity Scale 1 (comets in class 1) (HaCaT cells; 250 nM, no UVA): 10 ± 4 | Toxicity Scale 2 (comets in class 2) (HaCaT cells; 250 nM, no UVA): 2 ± 2 | Toxicity Scale 3 (comets in class 3) (HaCaT cells; 250 nM, no UVA): 0 ± 0 | Toxicity Scale 4 (comets in class 4) (HaCaT cells; 250 nM, no UVA): 0 ± 0 | Total Damage (overall comet score, 0-400) (HaCaT cells; 500 nM + 15 J/cm^2 UVA): 59.0±7.0 | Total Damage (overall comet score, 0-400) (HaCaT cells; 500 nM + 15 J/cm^2 UVA, listed as EGT): 59 ± 7 | Toxicity Scale 0 (comets in class 0) (HaCaT cells; 500 nM + 15 J/cm^2 UVA): 49 ± 7 | Toxicity Scale 1 (comets in class 1) (HaCaT cells; 500 nM + 15 J/cm^2 UVA): 43 ± 8 | Toxicity Scale 2 (comets in class 2) (HaCaT cells; 500 nM + 15 J/cm^2 UVA): 8 ± 1 | Toxicity Scale 3 (comets in class 3) (HaCaT cells; 500 nM + 15 J/cm^2 UVA): 0 ± 0 | Toxicity Scale 4 (comets in class 4) (HaCaT cells; 500 nM + 15 J/cm^2 UVA): 0 ± 0 | Total Damage (overall comet score, 0-400) (HaCaT cells; 500 nM, no UVA): 22 ± 6 | Toxicity Scale 0 (comets in class 0) (HaCaT cells; 500 nM, no UVA): 81 ± 6 | Toxicity Scale 1 (comets in class 1) (HaCaT cells; 500 nM, no UVA): 16 ± 7 | Toxicity Scale 2 (comets in class 2) (HaCaT cells; 500 nM, no UVA): 3 ± 2 | Toxicity Scale 3 (comets in class 3) (HaCaT cells; 500 nM, no UVA): 0 ± 0 | Toxicity Scale 4 (comets in class 4) (HaCaT cells; 500 nM, no UVA): 0 ± 0 | total glutathione level [2]: increased
